In the assay the target is Carbonic anhydrase 9 (Homo sapiens, UniProt Q16790). Nature of the assay: Inhibition of recombinant human carbonic anhydrase 9 incubated for 6 hrs prior to testing measured for 10 to 100 secs by phenol red-based stopped-flow CO2 hydration assay.

`CCn1c(-c2ccc(Br)cc2)cs/c1=N/c1ccc(S(N)(=O)=O)cc1`: the Ki (as a rule, the equilibrium dissociation constant of an inhibitor or competing ligand from its target) amounted to 3390 nM.
For `CCn1c(-c2ccc(C#N)cc2)cs/c1=N/c1ccc(S(N)(=O)=O)cc1`, the inhibitory constant (Ki) stood at 4330 nM.
On to `CCn1c(-c2cccc([N+](=O)[O-])c2)cs/c1=N/c1ccc(S(N)(=O)=O)cc1`, for which the inhibition constant (Ki) was found to be 214 nM.
Regarding `CCn1c(-c2ccc([N+](=O)[O-])cc2)cs/c1=N/c1ccc(S(N)(=O)=O)cc1`, the Ki is 4320 nM.
Take `CCn1c(-c2ccc(C)cc2)cs/c1=N/c1ccc(S(N)(=O)=O)cc1`: the Ki worked out at 358 nM.
On to `CCn1c(-c2ccccc2)cs/c1=N/c1ccc(S(N)(=O)=O)cc1`, for which the inhibitory constant (Ki) was 248 nM.
With `CCn1c(-c2ccc(Cl)cc2)cs/c1=N/c1ccc(S(N)(=O)=O)cc1`, the Ki was found to be 109 nM.
Take `CCn1c(-c2cccs2)cs/c1=N/c1ccc(S(N)(=O)=O)cc1`: the Ki amounted to 297 nM.
On to `CCn1c(-c2ccc(F)cc2F)cs/c1=N/c1ccc(S(N)(=O)=O)cc1`, for which the inhibition constant (Ki) turned out to be 144 nM.
Consider `CCn1c(-c2ccc(-c3ccccc3)cc2)cs/c1=N/c1ccc(S(N)(=O)=O)cc1`, for which the Ki is 4310 nM.
`CCn1c(-c2ccc(F)cc2)cs/c1=N/c1ccc(S(N)(=O)=O)cc1`: the inhibition constant Ki turned out to be 3930 nM.
For the compound `CCn1c(-c2ccc(OC)cc2)cs/c1=N/c1ccc(S(N)(=O)=O)cc1`, the Ki amounted to 205 nM.
Then `CCn1c(-c2ccc(Cl)cc2Cl)cs/c1=N/c1ccc(S(N)(=O)=O)cc1`, with 225 nM.

The record behind these values is ChEMBL document CHEMBL4613303, “New Dihydrothiazole Benzensulfonamides: Looking for Selectivity toward Carbonic Anhydrase Isoforms I, II, IX, and XII” (ACS Med Chem Lett, 2020).
